The record followed here is patent publication US11739098B2 (BRISTOL-MYERS SQUIBB COMPANY, priority 2017, dated 2023).

Assay type in all cases: cell-based
One assay deals with T1, human TLR7 (Homo sapiens, UniProt Q9NYK1).
T1 construct: host or cells: HEK-Blue cells (HEK293-derived reporter line)
T1 sequence (Q9NYK1 27-1049): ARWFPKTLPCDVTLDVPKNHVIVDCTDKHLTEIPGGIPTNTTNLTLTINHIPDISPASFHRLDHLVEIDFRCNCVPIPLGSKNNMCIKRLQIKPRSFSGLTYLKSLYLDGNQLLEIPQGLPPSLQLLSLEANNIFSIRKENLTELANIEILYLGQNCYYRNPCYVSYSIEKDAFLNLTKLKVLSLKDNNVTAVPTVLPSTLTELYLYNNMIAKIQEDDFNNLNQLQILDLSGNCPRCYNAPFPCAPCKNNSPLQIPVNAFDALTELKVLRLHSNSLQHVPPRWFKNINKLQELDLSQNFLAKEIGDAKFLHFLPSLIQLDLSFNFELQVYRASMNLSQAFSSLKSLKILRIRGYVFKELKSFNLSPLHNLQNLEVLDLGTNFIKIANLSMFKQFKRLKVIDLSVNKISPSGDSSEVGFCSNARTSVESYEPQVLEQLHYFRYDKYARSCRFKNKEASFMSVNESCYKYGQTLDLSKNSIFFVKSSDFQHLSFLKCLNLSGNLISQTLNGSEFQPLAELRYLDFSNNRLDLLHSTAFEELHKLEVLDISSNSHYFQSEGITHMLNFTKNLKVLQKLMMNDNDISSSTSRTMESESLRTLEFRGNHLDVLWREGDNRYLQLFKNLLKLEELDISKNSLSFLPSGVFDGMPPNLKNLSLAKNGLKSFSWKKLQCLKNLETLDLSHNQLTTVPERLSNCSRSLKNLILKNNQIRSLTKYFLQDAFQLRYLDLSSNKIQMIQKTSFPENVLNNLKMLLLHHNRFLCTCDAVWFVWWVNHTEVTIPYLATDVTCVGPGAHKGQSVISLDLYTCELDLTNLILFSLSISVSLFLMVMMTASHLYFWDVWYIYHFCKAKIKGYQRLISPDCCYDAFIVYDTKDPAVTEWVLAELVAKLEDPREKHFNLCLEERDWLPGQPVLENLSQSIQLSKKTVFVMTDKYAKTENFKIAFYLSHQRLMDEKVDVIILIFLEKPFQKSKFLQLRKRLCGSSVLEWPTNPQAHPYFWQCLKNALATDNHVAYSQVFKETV
The assay is described as follows: TLR7 inhibition reporter assay (HEK-Blue cells, SEAP reporter, gardiquimod stimulation). As to conditions: HEK-Blue cells overexpressing human TLR7, SEAP reporter, gardiquimod 7.5 μM. In short, it runs like this: (§1)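 HEK-Blue cells overexpressing the receptor, with NF-κB/AP-1-driven SEAP, were pre-treated 30 min at room temperature with compound (0.05 nM–50 μM), then stimulated with gardiquimod 7.5 μM (TLR7), R848 15.9 μM (TLR8) or ODN2006 5 nM (TLR9). SEAP was read after 22 h at 37 °C as percent inhibition.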
(In a reporter assay the amount or activity of a reporter protein is the signal.)

Another assay concerns the target T2, human TLR9 (Homo sapiens, UniProt Q9NR96).
T2 construct: host or cells: HEK-Blue cells (HEK293-derived reporter line)
T2 sequence (Q9NR96 26-1032): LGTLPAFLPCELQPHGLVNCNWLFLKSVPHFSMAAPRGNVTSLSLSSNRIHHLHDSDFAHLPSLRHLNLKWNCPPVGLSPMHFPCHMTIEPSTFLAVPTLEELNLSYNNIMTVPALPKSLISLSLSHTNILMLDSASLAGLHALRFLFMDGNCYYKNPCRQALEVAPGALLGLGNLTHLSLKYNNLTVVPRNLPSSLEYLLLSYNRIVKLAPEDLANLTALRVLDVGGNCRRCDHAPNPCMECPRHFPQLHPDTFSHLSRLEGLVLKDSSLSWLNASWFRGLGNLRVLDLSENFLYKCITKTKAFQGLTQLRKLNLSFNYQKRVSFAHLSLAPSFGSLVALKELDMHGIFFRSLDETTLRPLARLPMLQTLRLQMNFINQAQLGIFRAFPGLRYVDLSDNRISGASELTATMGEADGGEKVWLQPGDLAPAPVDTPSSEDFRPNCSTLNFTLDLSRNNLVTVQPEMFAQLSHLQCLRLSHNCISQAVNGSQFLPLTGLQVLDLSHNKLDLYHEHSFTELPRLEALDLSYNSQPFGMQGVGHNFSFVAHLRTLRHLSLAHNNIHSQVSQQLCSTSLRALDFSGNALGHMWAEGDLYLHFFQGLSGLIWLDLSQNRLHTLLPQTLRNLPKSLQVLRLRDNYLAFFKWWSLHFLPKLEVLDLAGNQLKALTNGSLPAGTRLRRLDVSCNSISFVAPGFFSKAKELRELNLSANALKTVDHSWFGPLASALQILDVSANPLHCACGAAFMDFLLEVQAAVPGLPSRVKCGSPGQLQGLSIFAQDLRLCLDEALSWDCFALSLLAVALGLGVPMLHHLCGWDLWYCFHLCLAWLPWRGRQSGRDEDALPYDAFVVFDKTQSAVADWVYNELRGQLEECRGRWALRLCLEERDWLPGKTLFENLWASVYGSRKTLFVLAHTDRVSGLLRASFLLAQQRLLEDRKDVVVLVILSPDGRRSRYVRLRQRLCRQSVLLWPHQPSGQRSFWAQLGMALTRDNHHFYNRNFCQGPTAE
The assay is described as follows: TLR9 inhibition reporter assay (HEK-Blue cells, SEAP reporter, ODN2006 stimulation). As to conditions: HEK-Blue cells overexpressing human TLR9, SEAP reporter, ODN2006 5 nM. In short, it runs like this: as §1

For another assay, the target named is T3, human TLR8 (Homo sapiens, UniProt Q9NR97).
T3 construct: host or cells: HEK-Blue cells (HEK293-derived reporter line)
T3 sequence (Q9NR97 27-1041): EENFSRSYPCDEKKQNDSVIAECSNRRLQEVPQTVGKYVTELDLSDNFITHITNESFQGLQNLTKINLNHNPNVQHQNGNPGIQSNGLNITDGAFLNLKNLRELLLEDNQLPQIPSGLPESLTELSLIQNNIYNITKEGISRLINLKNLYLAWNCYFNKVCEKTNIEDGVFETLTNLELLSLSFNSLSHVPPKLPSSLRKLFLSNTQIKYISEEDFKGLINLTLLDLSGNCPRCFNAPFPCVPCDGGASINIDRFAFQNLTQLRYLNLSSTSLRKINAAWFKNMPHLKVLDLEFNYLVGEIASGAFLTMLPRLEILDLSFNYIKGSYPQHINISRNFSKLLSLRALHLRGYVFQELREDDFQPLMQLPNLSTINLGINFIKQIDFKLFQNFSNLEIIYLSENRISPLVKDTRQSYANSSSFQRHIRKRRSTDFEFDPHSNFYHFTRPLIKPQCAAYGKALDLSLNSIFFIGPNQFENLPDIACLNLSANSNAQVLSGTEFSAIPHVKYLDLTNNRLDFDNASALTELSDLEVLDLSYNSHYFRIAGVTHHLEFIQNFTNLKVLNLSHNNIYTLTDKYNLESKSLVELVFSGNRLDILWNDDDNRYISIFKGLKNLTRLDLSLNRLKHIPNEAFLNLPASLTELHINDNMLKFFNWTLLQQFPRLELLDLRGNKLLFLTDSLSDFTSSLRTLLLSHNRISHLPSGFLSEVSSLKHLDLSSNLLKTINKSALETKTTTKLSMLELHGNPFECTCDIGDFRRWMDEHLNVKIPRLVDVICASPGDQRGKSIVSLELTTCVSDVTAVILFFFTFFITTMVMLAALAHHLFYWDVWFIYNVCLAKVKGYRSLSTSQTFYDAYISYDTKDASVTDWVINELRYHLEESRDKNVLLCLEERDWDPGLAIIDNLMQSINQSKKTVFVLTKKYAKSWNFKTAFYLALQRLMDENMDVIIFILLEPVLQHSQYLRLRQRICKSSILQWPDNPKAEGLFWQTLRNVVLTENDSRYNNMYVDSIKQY
The assay is described as follows: TLR8 inhibition reporter assay (HEK-Blue cells, SEAP reporter, R848 stimulation). As to conditions: HEK-Blue cells overexpressing human TLR8, SEAP reporter, R848 15.9 μM. A digest of the protocol:
as §1

Take `CC(C)c1c(-c2cnc3ccnn3c2)[nH]c2ccc(C3CCN(C(C)C)CC3)cc12` [Example 944, 6-(3-isopropyl-5-(1-isopropylpiperidin-4-yl)-1H-indol-2-yl)pyrazolo[1,5-a]pyrimidine]: the IC50 is 1000 to 50000 nM against human TLR7, 1000 to 50000 nM on human TLR9 and above 3130 nM at human TLR8.

For `Cc1cn2cc(-c3[nH]c4ccc(C5CCN(C(C)C)CC5)cc4c3C(C)C)ccc2n1` [Example 945, 6-(3-isopropyl-5-(1-isopropylpiperidin-4-yl)-1H-indol-2-yl)-2-methylimidazo[1,2-a]pyridine], the IC50 against human TLR7 was below 100 nM; against human TLR9 it was 100 to 1000 nM; against human TLR8, 100 to 1000 nM.

On to `CC(C)c1c(-c2ccc3nccn3c2)[nH]c2ccc(C3CCN(C(C)C)CC3)cc12` [Example 946, 6-(3-isopropyl-5-(1-isopropylpiperidin-4-yl)-1H-indol-2-yl)imidazo[1,2-a]pyridine], for which the IC50 was below 100 nM against human TLR7, 100 to 1000 nM against human TLR9 and below 100 nM at human TLR8.

For the molecule `CC(C)c1c(-c2ccc3nccn3c2)[nH]c2ccc(C3CCN(C)CC3)cc12` [Example 947, 6-(3-isopropyl-5-(1-methylpiperidin-4-yl)-1H-indol-2-yl)imidazo[1,2-a]pyridine], the IC50 is below 100 nM against human TLR7, 100 to 1000 nM at human TLR9 and below 100 nM at human TLR8.

For `CC(C)N1CCC(c2ccc3[nH]c(-c4ccc5nccn5c4)c(CC(F)F)c3c2)CC1` [Example 948, 6-(3-(2,2-difluoroethyl)-5-(1-isopropylpiperidin-4-yl)-1H-indol-2-yl)imidazo[1,2-a]pyridine], the values for the IC50 on human TLR7, against human TLR9 and at human TLR8 were below 100 nM, 100 to 1000 nM and 100 to 1000 nM, respectively.

For the molecule `COc1cc(-c2[nH]c3ccc(C4CCN(CC#N)CC4)cc3c2C(C)C)cn2ccnc12` [Example 950, 2-(4-(3-isopropyl-2-(8-methoxyimidazo[1,2-a]pyridin-6-yl)-1H-indol-5-yl)piperidin-1-yl)acetonitrile], the half-inhibitory concentration (IC50) against human TLR7 is below 100 nM; at human TLR9, 100 to 1000 nM; at human TLR8, below 100 nM.

On to `Cc1cc(-c2[nH]c3ccc(C4CCN(CC#N)CC4)cc3c2C(C)C)cn2ccnc12` [Example 951, 2-(4-(3-isopropyl-2-(8-methylimidazo[1,2-a]pyridin-6-yl)-1H-indol-5-yl)piperidin-1-yl)acetonitrile], for which the 50% inhibitory concentration (IC50) is below 100 nM against human TLR7, 100 to 1000 nM against human TLR9 and below 100 nM against human TLR8.

On to `CCCN1CCC(c2ccc3[nH]c(-c4cc(OC)c5ncnn5n4)c(C(C)C)c3c2)CC1` [Example 952, 6-(3-isopropyl-5-(1-propylpiperidin-4-yl)-1H-indol-2-yl)-8-methoxy-[1,2,4]triazolo[1,5-b]pyridazine], for which the values for the half-maximal inhibitory concentration (IC50) against human TLR7, against human TLR9 and at human TLR8 were below 100 nM, 1000 to 50000 nM and below 100 nM, respectively.

Take `CCCN1CCC(c2ccc3[nH]c(-c4ccc5c(c4)COC5=O)c(C(C)C)c3c2)CC1` [Example 953, 5-(3-isopropyl-5-(1-propylpiperidin-4-yl)-1H-indol-2-yl)isobenzofuran-1(3H)-one]: the IC50 on human TLR7 was below 100 nM; on human TLR9, 1000 to 50000 nM; at human TLR8 it was below 100 nM.

With `CCCN1CCC(c2ccc3[nH]c(-c4cc(C)c5ncn(C)c5c4)c(C(C)C)c3c2)CC1` [Example 954, 6-(3-isopropyl-5-(1-propylpiperidin-4-yl)-1H-indol-2-yl)-1,4-dimethyl-1H-benzo[d]imidazole], the IC50 is below 100 nM against human TLR7, 100 to 1000 nM against human TLR9 and below 100 nM at human TLR8.

Consider `Cc1cc(-c2[nH]c3ccc(C4CCN(CC(C)C)CC4)cc3c2C(C)C)cc2[nH]cnc12` [Example 955, 6-(5-(1-isobutylpiperidin-4-yl)-3-isopropyl-1H-indol-2-yl)-4-methyl-1H-benzo[d]imidazole], for which the results for the IC50 against human TLR7, on human TLR9 and against human TLR8 were below 100 nM, 100 to 1000 nM and below 100 nM, respectively.

Regarding `CCCN1CCC(c2ccc3[nH]c(-c4cc(C)c5c(c4)ncn5C)c(C(C)C)c3c2)CC1` [Example 956, 5-(3-isopropyl-5-(1-propylpiperidin-4-yl)-1H-indol-2-yl)-1,7-dimethyl-1H-benzo[d]imidazole], the IC50 was below 100 nM against human TLR7, 100 to 1000 nM against human TLR9 and 100 to 1000 nM against human TLR8.

For the molecule `CCc1c(-c2ccnc3[nH]ncc23)[nH]c2ccc(C3CCN(C(C)C)CC3)cc12` [Example 957, 4-(3-ethyl-5-(1-isopropylpiperidin-4-yl)-1H-indol-2-yl)-1H-pyrazolo[3,4-b]pyridine], the 50% inhibitory concentration (IC50) on human TLR7 is 100 to 1000 nM; against human TLR9, 1000 to 50000 nM; against human TLR8, below 100 nM.

Regarding `CC(C)c1c(-c2cn(C)c3ncccc23)[nH]c2ccc(C3CCN(CC#N)CC3)cc12` [Example 958, 2-(4-(3-isopropyl-2-(1-methyl-1H-pyrrolo[2,3-b]pyridin-3-yl)-1H-indol-5-yl)piperidin-1-yl)acetonitrile], the IC50 is below 100 nM at human TLR7, 1000 to 50000 nM on human TLR9 and below 100 nM against human TLR8.

What is called IC50 is the concentration that inhibits the measured activity by half. Low values mean greater potency in that assay, high ones weaker potency in that assay.
